Laboratory results reported in patent publication US7538193B2, “NO-modified hemoglobins and uses therefor” (Duke University, priority 1995, dated 2009).

Experiments:
rabbit aortic ring = assay: Vessel ring bioassay of SNO-Hb preparations (Examples 4, 13); assay type: cell-based; settings: for vasoactivity in vascular ring bioassay: no added thiol (FIG. 4A)
Method: Details of the vessel ring bioassay have been published (Stamler, J. S., et al., Proc. Natl. Acad. Sci. USA 89:444-448 (1992)). SNO-Hb(FeII)O2 preparations were synthesized with 10-fold excess S-nitrosocysteine (CYSNO) over Hb(FeII)O2 protein (2% borate, 0.5 mM EDTA, ˜15 min incubation), after which desalting was performed across Sephadex G-25 columns. CYSNO was synthesized in 0.5 N HCl, 0.5 mM EDTA and then neutralized (1:1) in 1 M phosphate buffer containing 0.5 mM EDTA. […] The latter was synthesized by treatment of Hb(FeII)O2 with excess ferricyanide, followed by desalting across G-25 columns. SNO-Hb concentrations were verified spectroscopically and the S-nitrosothiol content was determined by the method of Saville (Stamler, J. S., et al., Proc. Natl. Acad. Sci USA 89:444-448 (1992)). The S—NO/tetramer stoichiometry for both SNO-Hb preparations was ˜2. Oxidation of the heme was undetectable by uv-spectrophotometric methods.
The aortic ring bioassay was performed as described in Example 4. The product of the reaction in which a ratio of 100:1 CYSNO/Hb tetramer was used, contains 2 SNOs as well as NO attached to the heme.

[1] = tested on: rabbit thoracic aortic rings, endothelium removed; assay: Oxygen-dependent vessel ring bioassay (Examples 22, 23); assay type: cell-based
[2] = tested on: substantia nigra, caudate putamen nucleus and parietal cortex of Sprague-Dawley rats; assay: O2-dependent local cerebral blood flow in rats (Example 25); assay type: in vivo, rat; settings: 1 μmol/kg infused over 3 minutes
Method: Adult male Sprague-Dawley rats (290-350 g) were anesthetized with sodium pentobarbital (50 mg/kg IP), intubated and ventilated with a small animal respirator (Edco Scientific Inc., Chapel Hill, N.C.) at a rate and tidal volume to maintain normal values of PaCO2 (35-45 mm Hg; PaCO2=systemic arterial blood carbon dioxide tension). The femoral vein and artery were cannulated for infusion of drugs and for continuous monitoring of systemic blood pressure, respectively. Aliquots of arterial blood (200 μl) were drawn periodically to measure blood gas tensions and pH (Instrumentation Laboratory Co., model 1304 blood gas/pH analyzer). The blood was replaced intravenously with three volumes of normal saline. The inspired O2 concentration was varied using premixed gases balanced with nitrogen. The tissue PO2 was measured continuously with polarographic platinum microelectrodes (50 μm O.D. coated with hydrophobic gas permeable Nafion) implanted stereotaxically in both the right and left hippocampus (AP-3.4 mm, ML+2.2 mm), caudate putamen nucleus and substantia nigra (see coordinates below) (Young, W., Stroke, 11:552-564 (1980); Heiss, W. D. and Traupett, H., Stroke, 12:161-167 (1981); Dewhirst, M. W. et al., Cancer Res., 54:3333-3336 (1994); Kerger, H. et al., Am. J. Physiol., 268:H802-H810 (1995)). The PO2 electrodes were polarized to −0.65V against a distant Ag/AgCl reference located on the tail and the current flow was measured using a low-impedance nA-meter. Regional arterial PO2 was adjusted by changing the inspired O2 concentration and atmospheric pressure.
Polarographic hydrogen (H2)-sensitive microelectrodes were implanted stereotaxically in the substantia nigra (AP −5.3 mm, ML −2.4 mm to the bregma, depth 3.2 mm), caudate putamen nucleus (CPN) (AP +0.8 mm, ML −2.5 mm, depth 5.2 mm) and parietal cortex, for measurement of regional blood flow (Young, W., Stroke, 11:552-564 (1980); Heiss, W. D. and Traupett, H., Stroke, 12:161-167 (1981)). The microelectrodes were made from platinum wire and insulated with epoxy, with the exception of the tip (1 mm) which was coated with Nafion. For placement, the electrodes were mounted on a micromanipulator and the rat's head was immobilized in a Kopf stereotaxic frame. H2-sensitive electrodes were polarized to +400 mV against a distant reference electrode on the tail, and the polarographic current was measured using a low-impedance nA meter during and after the inhalation of hydrogen gas (2.5%) for 1 min. Both the hydrogen clearance curves and voltage for oxygen measurements were made using PC WINDAQ (software, DI-200 AC, Dataq Instruments, Inc., Akron, Ohio). Cerebral blood flow was calculated using the initial slope method (Young, W., Stroke, 11:552-564 (1980); Heiss, W. D. and Traupett, H., Stroke, 12:161-167 (1981)). Regional blood flow responses were monitored for 30 min. prior to and 30 min. following drug administration; hemoglobins were given at time 0.
The cerebrovascular effects of SNO-Hb were measured in adult male Sprague-Dawley rats using O2 and H2 (blood flow)-sensitive microelectrodes that were placed stereotaxically in several regions of the brain as for Example 24.

rat red blood cells = assay: S-nitrosation of intraerythrocytic Hb on incubation of red blood cells with RSNOs; assay type: cell-based; settings: oxygenated rat red blood cells
Method: Incubation of rat erythrocytes with S-nitrosocysteine (equimolar to heme (5 mM); phosphate buffer pH 7.4, 25° C.) leads to rapid formation of intracellular SNO-Hb(FeII)O2. […] By 60 min, 3 of the 4 available SH groups of Hb were S-nitrosated (note that rat Hb contains 4 reactive SH groups). […] Spectrum A is that of SNO-Hb isolated from erythrocytes following G-25 chromatography. Treatment of A with dithionite results in reduction of the S—NO moiety, liberating free NO which is autocaptured by deoxy Hb, forming Hb(FeII)NO (note that dithionite simultaneously deoxygenates Hb) (spectrum C). […] The spectrum of Hb(FeII)NO containing 4 NO's per tetramer is shown for comparison (inset, spectrum B).
At shown intervals, red blood cells were pelleted rapidly by centrifugation, washed three times, lysed in deionized water at 4° C., and the cytosolic fraction subjected to rapid desalting across G-25 columns. Intracellular SNO-Hb was measured by the method of Saville (Gaston, B., et al., (1992); Stamler, J. S., et al., Proc. Natl. Acad. Sci. USA, 89:444-448 (1992)), and confirmed spectroscopically (inset of FIG. 3A) as described above.

Sprague-Dawley rat = assay: Mean arterial blood pressure in anesthetized rats after femoral vein bolus (Examples 5, 6); assay type: in vivo; settings: 2-200 nmol/kg bolus
From the text: Rats were anesthetized by intraperitoneal injection of pentobarbital and the femoral arteries and veins accessed by local cut down. The artery was then cannulated and the blood pressure monitored continuously using a Viggo Spectramed pressure transducer attached to a Gould recorder. An IBM PC (DATA Q Codas) was used for data acquisition.

[3] = tested on: rat brain (caudatoputamen nucleus); assay: Brain blood flow in rats by H2 clearance (Example 12); assay type: in vivo; settings: rats breathing 21% O2; 100 or 1000 nmol/kg
Method: SNO-Hb(FeII)O2, having a SNO/Hb ratio of 2, was prepared (from HbA0) by reaction with S-nitrosothiol. Rats breathing 21% O2 were injected (time 0) with Hbs prepared from HbA0 as indicated in FIG. 10 (open circles, SNO-Hb (100 nmol/kg); filled circles, SNO-Hb (1000 nmol/kg); filled squares, unmodified Hb (1000 nmol/kg)). Three rats were used per experiment. Blood flow was measured in brain using the H2 clearance method; microelectrodes were placed in the brain stereotactically. […] NO group release is promoted by local tissue hypoxia.

[4] = Decomposition and stability of SNO-Hb forms; assay type: physicochemical
Method: Hbs in PBS (0.5 mM EDTA, pH 7.4) were incubated in air (oxy) or in a tonometer previously evacuated of O2 (deoxy). SNO-Hb(FeII)O2 decomposition was determined by the method of Saville (Saville, B., Analyst 83:670-672 (1958)). Spontaneous decomposition of SNO-Hb(FeII) was followed spectrophotometrically by formation of Hb(FeII)NO. Transnitrosation reactions with glutathione were performed by addition of 100-fold excess glutathione over protein (50 μM), immediate processing of the reaction mixture under anaerobic conditions followed by rapid TCA precipitation, and analysis of RSNO in the supernatant. Rates of NO group transfer were too rapid to measure accurately by the standard methods used in this study.

## 100:1 CYSNO/Hb product: Hb treated with 100:1 S-nitrosocysteine; contains 2 SNOs as well as NO attached to the heme (polynitrosated)
Rabbit aortic ring; Hb treated with S-nitrosocysteine 100:1 (FIG. 11)
  potency in aortic ring bioassay: much greater than that of SNO-Hb(FeIII)

## N[C@@H](CCC(=O)N[C@@H](CSN=O)C(=O)NCC(=O)O)C(=O)O [GSNO, S-nitrosoglutathione]
[1]; 95%, 21%, <1% O2 (FIG. 20D)
  vasorelaxant effects, dependence on PO2: largely independent of PO2
[2]; 100% O2 + 3 ATA
  local cerebral blood flow: increased brain perfusion
[2]; 100% O2
  local cerebral blood flow: increased brain perfusion
Rat red blood cells
  formation of intraerythrocytic SNO-Hb on treatment of red blood cells: not

## [N]=O [NO, nitric oxide, reference compound]
Rabbit aortic ring; in the presence of Hb(FeII)O2 or Hb(FeIII)
  relaxant activity of free NO: devoid of relaxant activity

## N[C@@H](CSN=O)C(=O)O [S-nitrosocysteine]
Rat red blood cells
  formation of intraerythrocytic SNO-Hb on treatment of red blood cells: very rapid formation of intracellular SNO-Hb(FeII)O2

## N[C@@H](CSN=O)C(=O)NCC(=O)O [S-nitrosocysteinylglycine]
Rat red blood cells
  formation of intraerythrocytic SNO-Hb on treatment of red blood cells: formed

## N[C@@H](CCSN=O)C(=O)O [S-nitrosohomocysteine]
Rat red blood cells
  formation of intraerythrocytic SNO-Hb on treatment of red blood cells: formed

## Hb(FeII)O2: oxyhemoglobin, cell-free, not S-nitrosated [reference compound]
Sprague-Dawley rat
  time for elevations in blood pressure to reverse: 10 to 15 min
Rabbit aortic ring; glutathione 100 ∥M in bioassay chambers (FIG. 4B)
  effect of added glutathione on the dose-response: did not significantly influence the response
Rabbit aortic ring
  vasoactivity in vascular ring bioassay: Contractile effects

## Hb(FeIII): methemoglobin, heme iron oxidized to FeIII [reference compound]
Rabbit aortic ring
  vasoactivity in vascular ring bioassay: contractile properties

## SNO-Hb: S-nitrosohemoglobin, hemoglobin S-nitrosylated at thiol groups (cysβ93)
[1]; 1 μM, rings contracted with phenylephrine under hypoxic conditions (6-7 torr)
  effect on vessel tone: relaxations
[1]; 10 μM glutathione in bioassay chambers
  effect of 10 μM glutathione on the response: potentiates the vasorelaxant response
[1]; 95% O2 or 21% O2 (R-structure)
  effect on vessel tension: contract blood vessels
[1]; <1% O2 (~6 torr), T-structure
  effect on vessel tension: does not
[2]; 21% O2
  local cerebral blood flow: improved blood flow in all three regions of the brain tested
[2]; 100% O2 + 3 ATA
  local cerebral blood flow: tended to decrease cerebral flow to similar extents
[2]; 100% O2
  local cerebral blood flow: significantly attenuated
[3]
  blood flow to the brain: improves blood flow to the brain

## SNO-deoxyHb: S-nitroso-deoxyhemoglobin synthesized in an anaerobic environment
[1]; <1% O2 (~6 torr), T-structure
  effect on vessel tension: modest effect on baseline tone
[4]; as synthesized in Example 27
  stability of the isolated preparation: highly unstable
[4]; deoxy conformation versus oxy state, PBS pH 7.4
  rates of RSNO decomposition (and transfer): much faster

## deoxyHb: deoxyhemoglobin, not S-nitrosated
[1]; <1% O2 (~6 torr), T-structure
  effect on vessel tension: powerful contractile agent
